Laboratory results as given in US7135466B2 (Kirin Beer Kabushiki Kaisha, priority 1999, dated 2006).
pIC50: −log10 of the molar value. Where two headings read alike, the source gives them in different places.

What was measured:
PDGF-Ra = target: T1, PDGF-Ra (Homo sapiens, UniProt P16234); assay: Inhibitory activity against PDGF-Ra phosphorylation by PDGF-AA stimulation using G292; format: cell-based; settings: for pIC50: > means inhibition at indicated concentration not more than 50%, < and << not less than 50%, read-out: PDGF (E) IC50; for inhibition at 0.1 µM: G292, at 100 nM, read-out: PDGF (E) inhibition (%) at 100 nM
T1 construct: host or cells: G-292 human osteosarcoma cells
How it was run: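 Phospho-PDGF-Ra ELISA: capture with PY-20 antiphosphotyrosine, detection with anti-PDGF-Ra and peroxidase secondary, read at 450 nm. Lysates came from G-292 osteosarcoma cells starved in 0.1% FBS, compound-treated 1 hr at 37° C, and stimulated with 50 ng/ml PDGF-AA for 5 min.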

c-kit = target: T2, c-kit (Homo sapiens, UniProt P10721); assay: Inhibitory activity against c-kit autophosphorylation (MO7e cells, h-SCF); format: cell-based; settings: for pIC50: MO7e cells, read-out: c-kit IC50; for inhibition at 1 µM: Mo7e, at 1000 nM
T2 construct: MO7e (human megakaryocytic leukemia cell line) which had been arrested for 20 hr; endogenous in cells; host or cells: MO7e human megakaryocytic leukemia cell line
How it was run: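 Growth-arrested (20 hr) MO7e; cpd in DMSO, 1 hr; h-SCF 50 ng/ml, 5 min; lyse. ELISA: anti-pTyr (PY-20) capture, anti-c-kit 1° Ab, HRP anti-rabbit 2° Ab, A450.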

[1] = figure within parentheses in >100( )
[2] = figure within parentheses in −( ) or >1000( )

T2 sequence (P10721 26-976): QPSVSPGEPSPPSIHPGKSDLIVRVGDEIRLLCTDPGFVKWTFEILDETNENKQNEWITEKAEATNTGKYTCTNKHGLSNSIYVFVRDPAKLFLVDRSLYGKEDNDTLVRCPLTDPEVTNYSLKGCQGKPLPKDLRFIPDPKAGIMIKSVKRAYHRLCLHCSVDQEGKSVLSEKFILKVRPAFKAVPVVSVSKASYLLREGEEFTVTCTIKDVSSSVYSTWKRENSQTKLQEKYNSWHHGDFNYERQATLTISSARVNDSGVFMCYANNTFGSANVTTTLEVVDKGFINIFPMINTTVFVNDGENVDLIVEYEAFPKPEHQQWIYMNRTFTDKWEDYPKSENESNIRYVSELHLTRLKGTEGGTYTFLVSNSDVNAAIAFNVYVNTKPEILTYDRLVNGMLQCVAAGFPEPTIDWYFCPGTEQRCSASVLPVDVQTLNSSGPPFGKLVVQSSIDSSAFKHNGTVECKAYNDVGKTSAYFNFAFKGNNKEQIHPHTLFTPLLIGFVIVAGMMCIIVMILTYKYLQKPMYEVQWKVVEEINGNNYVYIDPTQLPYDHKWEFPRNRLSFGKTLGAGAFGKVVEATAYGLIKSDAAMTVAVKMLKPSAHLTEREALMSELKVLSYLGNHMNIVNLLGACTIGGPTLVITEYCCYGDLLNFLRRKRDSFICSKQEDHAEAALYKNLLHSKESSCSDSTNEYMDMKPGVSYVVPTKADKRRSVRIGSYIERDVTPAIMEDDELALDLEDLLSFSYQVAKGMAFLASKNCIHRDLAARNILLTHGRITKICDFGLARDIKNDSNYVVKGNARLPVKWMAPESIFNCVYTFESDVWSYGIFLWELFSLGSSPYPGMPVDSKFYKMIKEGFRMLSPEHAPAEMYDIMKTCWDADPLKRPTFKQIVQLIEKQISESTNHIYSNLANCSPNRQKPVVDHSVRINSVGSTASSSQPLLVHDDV
T1 sequence (P16234 24-1089): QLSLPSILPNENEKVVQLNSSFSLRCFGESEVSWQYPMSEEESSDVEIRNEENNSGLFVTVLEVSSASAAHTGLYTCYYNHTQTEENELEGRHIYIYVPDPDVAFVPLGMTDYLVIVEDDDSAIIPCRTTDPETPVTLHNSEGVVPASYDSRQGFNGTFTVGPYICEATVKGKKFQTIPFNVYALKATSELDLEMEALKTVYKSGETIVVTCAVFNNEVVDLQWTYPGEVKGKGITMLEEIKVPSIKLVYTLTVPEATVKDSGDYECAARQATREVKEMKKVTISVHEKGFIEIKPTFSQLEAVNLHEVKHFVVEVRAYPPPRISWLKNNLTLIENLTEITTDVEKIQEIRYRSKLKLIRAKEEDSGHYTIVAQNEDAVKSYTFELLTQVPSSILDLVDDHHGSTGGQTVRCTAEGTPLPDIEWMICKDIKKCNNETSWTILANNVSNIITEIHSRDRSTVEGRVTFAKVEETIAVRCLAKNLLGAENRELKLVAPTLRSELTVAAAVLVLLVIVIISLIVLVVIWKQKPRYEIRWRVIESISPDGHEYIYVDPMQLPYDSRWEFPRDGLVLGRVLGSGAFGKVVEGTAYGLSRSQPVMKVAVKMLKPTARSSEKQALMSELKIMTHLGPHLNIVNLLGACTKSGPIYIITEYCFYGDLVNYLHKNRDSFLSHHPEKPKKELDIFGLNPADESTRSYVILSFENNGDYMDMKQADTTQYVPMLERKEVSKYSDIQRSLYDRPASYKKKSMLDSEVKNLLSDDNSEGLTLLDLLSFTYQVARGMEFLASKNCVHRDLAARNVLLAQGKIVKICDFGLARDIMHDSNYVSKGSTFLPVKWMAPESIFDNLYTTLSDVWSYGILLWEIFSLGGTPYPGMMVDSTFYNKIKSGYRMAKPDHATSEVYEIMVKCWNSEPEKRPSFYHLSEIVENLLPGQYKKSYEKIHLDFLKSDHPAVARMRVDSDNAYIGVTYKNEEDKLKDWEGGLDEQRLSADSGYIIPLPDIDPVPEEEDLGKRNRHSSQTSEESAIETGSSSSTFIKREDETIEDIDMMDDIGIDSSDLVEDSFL

| SMILES | pIC50 (PDGF-Ra) | pIC50 (PDGF-Ra; Pharmacological Test Example 1) | pIC50 (c-kit; h-SCF 50 ng/ml) | other results |
| --- | --- | --- | --- | --- |
| COc1cc2nccc(Oc3ccc(NC(=S)NC(=O)C4CCCC4)cc3Cl)c2cc1OC [Example 1182, N-{3-Chloro-4-[(6,7-dimethoxy-4-quinolyl)oxy]phenyl}-N′-cyclopentylcarbonylthiourea] | > 8.00 |  |  | pIC50 (c-kit; h-SCF stimulation): 6.69 |
| COc1cc2ncnc(Oc3ccc(NC(=S)NC(=O)c4ccccn4)cc3)c2cc1OC [Example 1156, N-{4-[(6,7-Dimethoxy-4-quinazolinyl)oxy]phenyl}-N′-(2-pyridylcarbonyl)thiourea] | < 7.00 |  |  | inhibition at 0.1 µM (PDGF-Ra; figure in parentheses in >100( )): 35%; inhibition at 1 µM (c-kit; figure in parentheses in −( )): 28% |
| COc1cc2nccc(Oc3cc(C)c(NC(=O)NC4CCN(Cc5ccccc5)CC4)cc3C)c2cc1OC [Example 634, N-(1-Benzyl-4-piperidyl)-N′-{4-[(6,7-dimethoxy-4-quinolyl)oxy]-2,5-dimethylphenyl}urea] | < 7.00 |  |  | inhibition at 0.1 µM (PDGF-Ra; [1]): 40%; inhibition at 1 µM (c-kit; [2]): 13% |
| CCN(CCNC(=O)Nc1ccc(Oc2ccnc3cc(OC)c(OC)cc23)cc1)c1cccc(C)c1 [Example 661, N-{4-[(6,7-Dimethoxy-4-quinolyl)oxy]phenyl}-N′-[2-(ethyl-3-methylanilino)ethyl]urea] | > 8.00 |  |  | pIC50 (c-kit; 50 ng/ml h-SCF): 7.12 |
| COc1cc2ncnc(Oc3ccc(NC(=O)OC4CCCCCC4)c(Cl)c3)c2cc1OC [Example 343, Cycloheptyl N-{2-chloro-4-[(6,7-dimethoxy-4-quinazolinyl)oxy]phenyl}carbamate] |  | > 8.00 | 6.63 |  |
| COc1cc2nccc(Oc3ccc(NC(=O)OCc4ccc(C(C)(C)C)cc4)c(C)c3C)c2cc1OC [Example 58, 4-(Tert-butyl)benzyl N-{4-[(6,7-dimethoxy-4-quinolyl)oxy]-2,3-dimethylphenyl}carbamate] |  | 7.92 | 6.30 |  |
| COc1cc2nccc(Oc3ccc(NC(=S)NC(=O)c4ccccc4C)c([N+](=O)[O-])c3)c2cc1OC [Example 925, N-{4-[(6,7-Dimethoxy-4-quinolyl)oxy]-2-nitrophenyl}-N′-(2-methylbenzoyl)thiourea] | 7.46 |  |  | pIC50 (c-kit; h-SCF stimulation): 6.37 |
| COc1cc2nccc(Oc3cc(C)c(NC(=O)OCCCN4CCN(C)CC4)cc3C)c2cc1OC [Example 425, 3-(4-Methylpiperazino)propyl N-{4-[(6,7-dimethoxy-4-quinolyl)oxy]-2,5-dimethylphenyl}carbamate] | < 7.00 |  |  | inhibition at 0.1 µM (PDGF-Ra; [1]): 5%; pIC50 (c-kit; 50 ng/ml h-SCF): 6.33 |
| COc1cc2nccc(Oc3cc(C)c(NC(=O)OCCCOc4ccccc4Cl)cc3C)c2cc1OC [Example 18, 3-(2-Chlorophenoxy)propyl N-{4-[(6,7-dimethoxy-4-quinolyl)oxy]-2,5-dimethylphenyl}carbamate] |  | 7.66 | 7.03 |  |
| COc1cc2nccc(Oc3cc(C)c(NC(=O)OCCCOc4ccccc4F)cc3C)c2cc1OC [Example 144, 3-(2-Fluorophenoxy)propyl N-{4-[(6,7-dimethoxy-4-quinolyl)oxy]-2,5-dimethylphenyl}carbamate] |  | 7.74 | 7.31 |  |
| COc1cc2ncnc(Oc3ccc(NC(=O)NN4CCCCCC4)cc3)c2cc1OC [Example 602, N-{4-[(6,7-Dimethoxy-4-quinazolinyl)oxy]phenyl}-N′-(1-homopiperidinyl)urea] | 7.96 |  |  | pIC50 (c-kit; 50 ng/ml h-SCF): 6.74 |
| COc1ccc(OCCCOC(=O)Nc2cc(C)c(Oc3ccnc4cc(OC)c(OC)cc34)cc2C)cc1 [Example 44, 3-(4-Methoxyphenoxy)propyl N-{4-[(6,7-dimethoxy-4-quinolyl)oxy]-2,5-dimethylphenyl}carbamate] |  | 7.72 | 6.48 |  |
| COc1cc2ncnc(Oc3ccc(NC(=O)OC(C)c4cc(F)c(F)cc4F)cc3)c2cc1OC (stereo not drawn) [Example 95, 1-(2,4,5-Trifluorophenyl)ethyl N-{4-[(6,7-dimethoxy-4-quinazolinyl)oxy]phenyl}carbamate] |  | 7.80 | 6.02 |  |
| COc1cc2nccc(Oc3ccc(NC(=O)OCCSc4cc(C)ccc4C)c(C)c3C)c2cc1OC [Example 166, 2-[(2,5-Dimethylphenyl)sulfanyl]ethyl N-{4-[(6,7-dimethoxy-4-quinolyl)oxy]-2,3-dimethylphenyl}carbamate] |  | 7.47 | 6.84 |  |
| CCCC(CCN1CCCCC1)OC(=O)Nc1ccc(Oc2ccnc3cc(OC)c(OC)cc23)cc1 (stereo not drawn) [Example 445, 1-(2-Piperidinoethyl)butyl N-{4-[(6,7-dimethoxy-4-quinolyl)oxy]phenyl}carbamate] | < 7.00 |  |  | inhibition at 0.1 µM (PDGF-Ra; [1]): 11%; pIC50 (c-kit; 50 ng/ml h-SCF): 6.03 |
| CCCOC(=O)Nc1ccc(Oc2ncnc3cc(OC)c(OC)cc23)cc1 [Example 314, Propyl N-{4-[(6,7-dimethoxy-4-quinazolinyl)oxy]phenyl}carbamate] |  | 7.36 | 7.49 |  |

| SMILES | pIC50 (PDGF-Ra) | pIC50 (PDGF-Ra; Pharmacological Test Example 1) | pIC50 (c-kit; h-SCF 50 ng/ml) | other results |
| --- | --- | --- | --- | --- |
| COc1cc2ncnc(Oc3ccc(NC(=O)Oc4ccccc4OC)cc3)c2cc1OC [Example 403, 2-Methoxyphenyl N-{4-[(6,7-dimethoxy-4-quinazolinyl)oxy]phenyl}carbamate] | 7.85 |  |  | pIC50 (c-kit; 50 ng/ml h-SCF): 7.03 |
| CCCCN(CCCC)CCNC(=O)Nc1ccc(Oc2ccnc3cc(OC)c(OC)cc23)cc1OC [Example 689, N-[2-(Dibutylamino)ethyl]-N′-{4-[(6,7-dimethoxy-4-quinolyl)oxy]-2-methoxyphenyl}urea] | < 7.00 |  |  | inhibition at 0.1 µM (PDGF-Ra; [1]): 42%; pIC50 (c-kit; 50 ng/ml h-SCF): 6.24 |
| COc1cc2ncnc(Oc3ccc(N(C)C(=O)OC4CCCCCC4)c(Cl)c3)c2cc1OC [Example 482, Cycloheptyl N-{2-chloro-4-[(6,7-dimethoxy-4-quinazolinyl)oxy]phenyl}-N-methylcarbamate] | 7.62 |  |  | inhibition at 1 µM (c-kit; [2]): 5% |
| COc1cc2nccc(Oc3ccc(NC(=O)OCc4ccccc4C)cc3)c2cc1OC [Example 250, 2-Methylbenzyl N-{4-[(6,7-dimethoxy-4-quinolyl)oxy]phenyl}carbamate] |  | 8.40 | 6.74 |  |
| COc1cc2nccc(Oc3ccc(NC(=O)OCN4C(=O)c5ccccc5C4=O)c(C)c3C)c2cc1OC [Example 418, (1,3-Dioxo-2,3-dihydro-1H-2-isoindolyl)methyl N-{4-[(6,7-dimethoxy-4-quinolyl)oxy]-2,3-dimethylphenyl}carbamate] | 7.59 |  |  | pIC50 (c-kit; 50 ng/ml h-SCF): 6.40 |
| COc1cc2nccc(Oc3ccc(NC(=O)OCc4cccc(C)c4)c(C)c3C)c2cc1OC [Example 233, 3-Methylbenzyl N-{4-[(6,7-dimethoxy-4-quinolyl)oxy]-2,3-dimethylphenyl}carbamate] |  | 8.10 | 7.28 |  |
| COc1cc2ncnc(Oc3ccc(NC(=O)OCc4ccc(C)cc4)cc3)c2cc1OC [Example 1, 4-Methylbenzyl N-{4-[(6,7-dimethoxy-4-quinazolinyl)oxy]phenyl}carbamate] |  | > 8.00 | 7.28 |  |
| CCCC(CCN1CCN(C)CC1)OC(=O)Nc1cc(C)c(Oc2ccnc3cc(OC)c(OC)cc23)cc1C (stereo not drawn) [Example 450, 1-[2-(4-Methylpiperazino)ethyl]butyl N-{4-[(6,7-dimethoxy-4-quinolyl)oxy]-2,5-dimethylphenyl}carbamate] | < 7.00 |  |  | inhibition at 0.1 µM (PDGF-Ra; [1]): 13%; inhibition at 1 µM (c-kit; [2]): 46% |
| CCC(OC(=O)Nc1cc(C)c(Oc2ccnc3cc(OC)c(OC)cc23)cc1C)c1ccccc1 (stereo not drawn) [Example 264, 1-Phenylpropyl N-{4-[(6,7-dimethoxy-4-quinolyl)oxy]-2,5-dimethylphenyl}carbamate] |  | 7.38 | 6.31 |  |
| COc1cc2nccc(Oc3ccc(NC(=O)OC(C)c4cccc(N(C)C)c4)c(C)c3C)c2cc1OC (stereo not drawn) [Example 200, 1-[3-(Dimethylamino)phenyl]ethyl N-{4-[(6,7-dimethoxy-4-quinolyl)oxy]-2,3-dimethylphenyl}-carbamate] |  | 7.51 | 6.48 |  |
| CCCCC(CCCC)OC(=O)Nc1ccc(Oc2ccnc3cc(OC)c(OC)cc23)c(C)c1C [Example 370, 1-Butylpentyl N-{4-[(6,7-dimethoxy-4-quinolyl)oxy]-2,3-dimethylphenyl}carbamate] |  | 7.13 | 6.23 |  |
| COc1cccc(OCCCOC(=O)Nc2ccc(Oc3ccnc4cc(OC)c(OC)cc34)cc2)c1 [Example 161, 3-(3-Methoxyphenoxy)propyl N-{4-[(6,7-dimethoxy-4-quinolyl)oxy]phenyl}carbamate] |  | > 8.00 | 6.75 |  |
| COc1cc2ncnc(Oc3ccc(NC(=O)OCCCOc4cccc(F)c4)c(C)c3C)c2cc1OC [Example 151, 3-(3-Fluorophenoxy)propyl N-{4-[(6,7-dimethoxy-4-quinazolinyl)oxy]-2,3-dimethylphenyl}carbamate] |  | 7.92 | 7.49 |  |
| COc1cc2ncnc(Oc3ccc(NC(=O)OCC4CCCCC4)cc3)c2cc1OC [Example 340, Cyclohexylmethyl N-{4-[(6,7-dimethoxy-4-quinazolinyl)oxy]phenyl}carbamate] |  | > 8.00 | 6.97 |  |
| COc1cc2nccc(Oc3ccc(NC(=O)NC4CCN(Cc5ccc(C(C)(C)C)cc5)C4)cc3)c2cc1OC (stereo not drawn) [Example 582, N-{1-[4-(Tert-butyl)benzyl]tetrahydro-1H-3-pyrrolyl}-N′-{4-[(6,7-dimethoxy-4-quinolyl)oxy]phenyl}urea] | < 7.00 |  |  | inhibition at 0.1 µM (PDGF-Ra; [1]): 20%; inhibition at 1 µM (c-kit; [2]): 29% |
